The record followed here is paper PMC9181926, “Synthesis and Antiproliferative Activity of Novel Dehydroabietic Acid-Chalcone Hybrids” (Molecules, 2022).

In data set [1] the test system is MDA-MB-231, MCF-7 and Hs578T breast cancer cell lines. Briefly: cells. The settings on record: Homo sapiens, read-out: IC50 against all the cancer cell lines.
Protocol: (§3) The antiproliferative activity of the synthesized DHA-chalcone hybrids 31–53 was evaluated using three characteristic breast carcinoma cell lines, MDA-MB-231, MCF-7, and Hs578T. For the sake of comparison, 5-FU, a widely used drug in clinical practice, was selected as positive control.
(§4) MCF-7 (ER-positive breast cancer cells, epithelial, low metastatic), MDA-MB-231, and Hs578T (triple negative breast cancer cells, mesenchymal, high metastatic) were obtained from American Type Culture Collection (ATCC) and cultured with DMEM high glucose/10% Fetal Bovine Serum (FBS) (supplied by Biosera). […] Cancer cells were seeded in 24 well plates (30,000 MCF-7 cells/well, 30.000 MDA-MB-231 cells/well, 25,000 Hs578T cells/well) and fibroblasts in 12 well plates (40,000 cells/well) and incubated in proper medium completed with 10% FBS for 48 h. Compounds were diluted in DMSO and working dilutions were prepared ranging from 5 to 200 μΜ for cancer cells and 1 to 100 μM for fibroblasts. All cells were incubated with working dilutions for 48 h. Afterwards, cells were detached by trypsinization, centrifuged at 3000 rpm for 3 min, and counted using a hemocytometer. Antiproliferation values were then calculated relatively to cancer or normal cells treated only with DMSO. […] IC50 values were calculated using GraphPad Prism 5 (Graph Pad Software).
Another data set relates to Hs578T cells. Briefly: Antiproliferation assay (cell counting, 48 h) in Hs578T breast cancer cells. It is filed as cell-based, human. The settings on record: for IC50: Hs578T cells, 48 h incubation, cell counting. An excerpt: (§1) Regarding the different characteristics of the used breast cancer cell lines, we can notice that MDA-MB-231 and Hs578T are triple negative.
(§2) Primary skin normal fibroblasts were kindly provided by Prof. Emer.

The subject of data set [2] is MDA-MB-231, MCF-7 and Hs578T breast cancer cell lines.
Protocol: as §3, §4
The subject of a further data set is MCF-7 cells. Briefly: Antiproliferation assay (cell counting, 48 h) in MCF-7 breast cancer cells. It is filed as cell-based, human. Conditions: for IC50: MCF-7 cells, 48 h incubation, cell counting.
Text: as §1, §2

The subject of data set [3] is normal primary fibroblasts (FB). Briefly: cells. It is filed as cell-based, human. The settings on record: normal primary human fibroblasts, 48 h incubation, cell counting.
Text: as §2

Another data set deals with MDA-MB-231 cells. Nature of the data set: Antiproliferation assay (cell counting, 48 h) in MDA-MB-231 breast cancer cells. It is filed as cell-based, human. Conditions: for IC50: MDA-MB-231 cells, 48 h incubation, cell counting.
Text: as §1, §2

Some results are limits rather than exact numbers.

On to `COC(=O)[C@]1(C)CCC[C@]2(C)c3cc(O)c(C(=O)/C=C/c4cccnc4)cc3CCC12` (stereo partly drawn) [Compound 33, (1R,4aS)-methyl 6-hydroxy-1,4a-dimethyl-7-((E)-3-(pyridin-3-yl)acryloyl)-1,2,3,4,4a, 9,10,10a-octahydrophenanthrene-1-carboxylate], for which the IC50 is 2.21 to 5.89 µM in data set [1]; 2.48 ± 0.13 µM in the data set on Hs578T cells (Homo sapiens, Hs-578T); 2.21 ± 0.4 µM in the data set on MCF-7 cells (Homo sapiens, MCF7); 8.68 ± 0.88 µM in data set [3] (Fibroblast); 5.89 ± 0.77 µM with MDA-MB-231 cells (Homo sapiens). In addition, the “Selectivity Index for Hs578T” value in the data set with Hs578T cells (FB IC50 relative to Hs578T IC50) is on record as 3.50. Also, in data set [2], the “times less toxic than 5-FU (selectivity indices)” value was 2.2-3 times. The “times more active than 5-FU” value in data set [2] is reported as 2.4-3.3 times. Further, the “Selectivity Index for MCF-7” value with MCF-7 cells (FB IC50 relative to MCF-7 IC50) stood at 3.93. The “Selectivity Index for MDA-MB-231” value in the data set on MDA-MB-231 cells (FB IC50 relative to MDA-MB-231 IC50) came out at 1.47.

Take “(1R,4aS)-methyl 6-hydroxy-1,4a-dimethyl-7-((E)-3-oxo-3-(pyridin-3-yl)prop-1-en-1-yl)-1,2,3,4,4a,9,10,10a-octahydrophenanthrene-1-carboxylate [Compound 50]”: the half-inhibitory concentration (IC50) in the data set with Hs578T cells was greater than 75 µM; in the data set on MCF-7 cells it was greater than 75 µM; in data set [3], 192 ± 51.4 µM; with MDA-MB-231 cells, greater than 75 µM.

In the case of “(1R,4aS)-methyl 7-((E)-3-(1H-pyrrol-3-yl)acryloyl)-6-hydroxy-1,4a-dimethyl-1,2,3,4, 4a,9,10,10a-octahydrophenanthrene-1-carboxylate [Compound 43]”, the IC50 with Hs578T cells amounted to 16.6 ± 2.83 µM; with MCF-7 cells, 4.29 ± 0.29 µM; in data set [3], 33 ± 6.1 µM; with MDA-MB-231 cells, 29.2 ± 3.26 µM.

As for “(1R,4aS)-methyl 7-((E)-3-(2-chloroquinolin-4-yl)acryloyl)-6-hydroxy-1,4a-dimethyl-1,2,3,4, 4a,9,10,10a-octahydrophenanthrene-1-carboxylate [Compound 41]”, the 50% inhibitory concentration (IC50) in the data set with Hs578T cells came to 10.3 ± 0.25 µM; in the data set with MCF-7 cells it was 3.99 ± 0.15 µM; in data set [3] it was 7.96 ± 0.1 µM; in the data set on MDA-MB-231 cells, 7.12 ± 0.2 µM.

For orientation: IC50 means the concentration that gives 50% inhibition.
